Results from patent US20160251614A1, “CELL CULTURE MEDIUM AND BIOPROCESS OPTIMIZATION” (UNIVERSITY OF NOTRE DAME DU LAC, priority 2013, published 2016).

What was measured:
Type in all cases: cell-based, Drosophila
C1.8 cells [1] = assay: Primary small molecule screen in ZO Fortified, CyQUANT Direct Proliferation Assay; settings: C1.8 cells in ZO Fortified; for compound z-score (zC1.8): 4 days, z vs negative control, hit cutoffs z=±3; for hit call, primary screen: hit cutoffs ±3
Experimental: (§1) Five stock plates of randomized compounds (410 total) were prepared at 75 μM in water (1:133 dilution) using an automated liquid handler (Eppendorf EPMotion 5075). Strategically located negative control wells were incorporated into the stock plates by dosing wells with DMSO (1:133, carrier only control). Randomly placed positive control wells were also included by dosing wells with DMSO (1:133); for flexibility, positive controls were prepared in the working stock. Working stocks plates at 2 and 20 μM (2×) were then prepared in ZO Fortified by diluting the 5 stock plates 1:3.75 (high concentration working stock) and then serially diluting 1:10 (low concentration working stock). Positive control wells were prepared by replacing 10% of the media with 100% fly extract (FEX).
(§2) Cells were rinsed three times in PBS and seeded at a concentration of 50,000 cells/well (50 μL) in ZO Fortified (primary screen) or ZO Fortified supplemented with 2 μM spermidine (secondary screen) in 10 plates. Working stocks, 50 μL, were then immediately added on top of the cells (day 0). Plates were incubated at 25° C. for four days. On the fourth day, plates were imaged at 10× magnification on a confocal microscope using automated screen acquisition (Andor Spinning Disc Confocal Microscope, Metamorph Software). CyQUANT® Direct Proliferation Assay (Invitrogen) was then added (0.25× final conc.) and fluorescent intensity was measured with a plate reader (Biotek Synergy H2).
(§3) Five stock plates of randomized compounds in singlet (410 total) were prepared at 75 μM in water (1:133 dilution) using an automated liquid handler (Eppendorf epMotion® 5075). Ten strategically located negative controls were incorporated into each stock plate by dosing wells with DMSO (1:133, carrier only control) (Zhang, Optimal High-Throughput Screening: Practical Experimental Design and Data Analysis for Genome Scale RNAi Research, 2011). Four randomly placed positive control wells were also included on each plate by dosing wells with DMSO (1:133) for consistency, but for flexibility positive control treatments were prepared in the working stock. Working stocks at 2 and 20 μM (2×) were then prepared in ZO Fortified by diluting the 5 stock plates 1:3.75 (high concentration working stock) and then serially diluting 1:10 (low concentration working stock). Positive control wells were prepared by replacing 10% of the media with 100% fly extract (FEX) (see Zartman et al., Dev. Camb. Engl., 2013, 140, 667-674).
(§4) Cells were rinsed three times in phosphate buffered saline (PBS) and seeded at 50,000 cells/well (50 μL) in ZO Fortified. Working stocks, 50 μL, were then immediately added on top of the cells (day 0). Plates were incubated at 25° C. for four days, and then imaged at 10× magnification on a Nikon microscope using automated screen acquisition in MetaMorph® software. Plates were then treated with CyQUANT® (0.25× final concentration) for one hour at 25° C., and fluorescent intensity was measured with a plate reader (Biotek Synergy H2).
(§5) Strictly standardized mean difference (SSMD) scores for classifying assay quality were calculated with respect to negative controls on a plate-wise basis, with the average assay quality being excellent for both cell lines and screened concentrations. […] As a hit selection metric we used z-scores, which measure the number of standard deviations from the negative control that a small molecule treatment causes. Z-scores were calculated on a plate-wise basis, and hit cutoffs of z=±3 were selected. Visual inspection of images was used to remove false-positive hits, which generally occurred due to autofluorescence of a few of the compounds.

S2 cells [2] = assay: as above; settings: for compound z-score (zS2): 4 days, z vs negative control, hit cutoffs z=±3; for hit call, primary screen: hit cutoffs ±3
Experimental: as §1, §2, §3, §4, §5

C1.8 cells [3] = assay: Long-term culture in chemically defined medium; settings: passaged 1:2 retaining half of spent media
Experimental: (§6) Cells were rinsed 3× in PBS and then seeded at high confluency in ZO Fortified and ZB Media (ZO Fortified supplemented with 1 μM spermidine). Upon reaching confluency, cells were passaged 1:2 retaining half of the spent media.
(§7) C1.8, S2, and Kc167 (Kc) cells were expanded in optimized serum-containing media, C1.8, S2, and Kc167 media, respectively. C1.8 media contains M3 media (Sigma-Aldrich) supplemented with FBS (2%), insulin (5 μg/m), and fly extract (2.5%). S2 media is based on Schneider's media (Gibco® Life Technologies) supplemented with FBS (10%). Kc media containing M3 media supplemented with yeast extract (10 mg/mL), bactopeptone (25 mg/mL), and 5% FBS. All cell lines were obtained and cultured according to instructions from the Drosophila Genomics Resource Center (DGRC). Fly extract was prepared from adult yw flies as described by the DGRC. For culture in chemically defined media, cells were rinsed three times in PBS to remove residual serum and seeded at around 70% confluency in ZO Fortified or ZB Media (ZO Fortified with 1 μM spermidine added at time of passage). Upon reaching confluency, cells were passaged 1:2 retaining half the spent media, similar to routine maintenance in complete media, with cells passaged in ZB Media receiving fresh doses of 1 μM spermidine.

S2 cells [4] = assay: Long-term culture in chemically defined medium; settings: passaged 1:2 retaining half of spent media
Experimental: as §6, §7

ERK in S2 cells = assay: Western blot of ERK and dpERK (MAPK activity); settings: spermidine supplementation, p>0.45
Experimental: (§8) For western blots, C1.8 and S2 cells were rinsed three times in PBS and seeded in tissue culture flasks at a concentration of 1,000,000 cell/mL in the various media. Cells were cultured until positive control samples (complete media) reached ˜90% confluency, at which point all cell samples were lysed for 30 minutes on ice in a buffer containing 50 mM Tris, 150 mM NaCl, 1% Nonidet P 40 substitute (Sigma 74385), and 1% Sigma protease inhibitor cocktail (P8340). Nucleic acid and cell debris were cleared by centrifugation at 12,000 rpm for 20 minutes at 4° C. Because polyamines are known to play roles in initiation of transcription and translation, “housekeeping” genes routinely used as loading controls for western blots are likely inappropriate for this application. Thus samples were normalized by total loaded protein. Sample protein concentrations were determined three independent times per sample using Coomassie Plus (Bradford) Assay (Thermo Scientific 23238). ANOVA comparison of loading concentrations across all samples found no significant variation between samples (p>0.34). Proteins were resolved by SDS-PAGE in reducing conditions, electroblotted to PVDF membranes (Hybone 10600087), and probed with either 1:1000 anti-rabbit p44/p42 MAPK (Erk1/2) (Cell Signaling) or 1:1500 anti-mouse MAPK (dpERK1/2) (Sigma). Blots were developed using WesternBreeze chromogenic western blot immunodetection kit (Invitrogen) and quantification was done in Fiji (Schindelin et al., Nat. Methods, 2012, 9, 676-682).

ERK in C1.8 cells = assay: Western blot of ERK and dpERK (MAPK activity)
Experimental: as §8

[5] = test system: polyamine-depleted C1.8 cells; assay: Polyamine-depleted spermidine dose-response, manual cell count; settings: ZO Fortified
Experimental: C1.8 cells were rinsed three times in PBS and seeded in ZO Fortified at 1×10^6 cell/mL. After nine days of culture in ZO Fortified, cells were harvested and seeded in tissue culture flasks in ZO Fortified supplemented with 0, 0.1, 1, or 10 μM spermidine (in triplicate). After 6 days of culture, cells were manually counted.

C1.8 cells [6] = assay: Secondary screen in ZB Media (ZO Fortified with spermidine), CyQUANT; settings: C1.8 cells in ZB Media, hit cutoffs ±3
Experimental: as §1, §2
(§9) Representative positive and negative control wells can be found in FIG. 7. Compound z-scores were calculated similarly, hit cutoffs of ±3 were established visual inspection of confocal images was used to remove false-positive hits. This analysis yielded 8 C1.8 and 27 S2 positive hit compounds and 12 C1.8 and 27 S2 negative hit compounds (FIGS. 8-10).

S2 cells [7] = assay: as above; settings: hit cutoffs ±3
Experimental: as §1, §2, §9

Compound | compound z-score (zC1.8) (C1.8 cells [1]) | compound z-score (zS2) (S2 cells [2]) | hit call, primary screen (C1.8 cells [1]) | hit call, primary screen (S2 cells [2]) | other results
CC(C)(C)c1cc(/C=C(\C#N)C(N)=S)cc(C(C)(C)C)c1O [AG-879] | −17.3 | −13.9 | – | – | –
NCCCCN [putrescine, butane-1,4-diamine] | – | – | positive hits | positive hits | –
NCCCCNCCCN [spermidine] | 10.0 | 8.7 | positive hit | positive hit | passages reached in long-term culture (C1.8 cells [3]): ≥ 98 passages; passages reached in long-term culture (C1.8 cells [3]; listed as Spermidine): > 15 passages; passages reached in long-term culture (S2 cells [4]): 4 passages; total ERK levels (ERK in S2 cells): not significantly influenced; ERK double phosphorylation (dpERK) (ERK in C1.8 cells; spermidine supplementation (ZB Media) vs ZO Fortified, p<0.012): increase ERK double phosphorylation; total ERK levels (ERK in C1.8 cells; spermidine supplementation, p>0.45): not significantly influenced; proliferation (cell number) ([5]; 1 μM spermidine compared to 0 or 0.1 μM, 6 days, p<5×10^−10): significant increase in proliferation; proliferation (cell number) ([5]; higher dose (10 μM) spermidine, after 6 days): failed to produce any statistically significant increases in cell number
CC1=C(O)C(=O)[C@@H]2O[C@@H]2C1=O [terreic acid] | – | – | – | – | hit call, secondary screen (C1.8 cells [6]): positive hit; hit call, secondary screen (S2 cells [7]): positive hit
CN[C@@H]1C[C@H]2O[C@@](C)([C@@H]1OC)n1c3ccccc3c3c4c(c5c6ccccc6n2c5c31)C(=O)NC4 [staurosporine] | −18.6 | −17.3 | – | – | –
Cc1cc(/C=C/c2ccc3cc(N(C)C)ccc3[n+]2C)c(C)n1-c1ccccc1 [pyrvinium pamoate] | −17.7 | −13.0 | – | – | –
CO[C@@H]1[C@H](N(C)C(=O)c2ccccc2)C[C@H]2O[C@]1(C)n1c3ccccc3c3c4c(c5c6ccccc6n2c5c31)C(=O)NC4 [PKC-412] | −17.1 | −11.0 | – | – | –
NCCCNCCCCNCCCN [spermine] | 10.4 | 17.7 | positive hit | positive hit | –
CC(O)=C(C#N)C(=O)Nc1cc(Br)ccc1Br [LFM-A13, α-cyano-β-hydroxy-β-methyl-N-(2,5-dibromophenyl)propen-amide] | – | – | – | – | hit call, secondary screen (C1.8 cells [6]): positive hit; hit call, secondary screen (S2 cells [7]): positive hit
